Reference: US9394282B2, “Pyrazole carboxamides as Janus kinase inhibitors” (Merck Sharp & Dohme Corp., priority 2011, dated 2016)

Columns and labels:
JAK1 = JAK1 (Homo sapiens (Human), UniProt P23458); assay: Jak biochemical HTRF assay, JAK1; settings: recombinant purified GST-tagged catalytic domain; HTRF format; [ATP] 31.8 μM
Excerpt: (§1) Jak Biochemical HTRF Assay Protocol
(§2) Subsequent reagent additions employed an Agilent Bravo.

JAK2 = JAK2 (Homo sapiens (Human), UniProt O60674); assay: Jak biochemical HTRF assay, JAK2; settings: recombinant purified GST-tagged catalytic domain; HTRF format; [ATP] 8.5 μM
Sequence of JAK2 (O60674 849-1124): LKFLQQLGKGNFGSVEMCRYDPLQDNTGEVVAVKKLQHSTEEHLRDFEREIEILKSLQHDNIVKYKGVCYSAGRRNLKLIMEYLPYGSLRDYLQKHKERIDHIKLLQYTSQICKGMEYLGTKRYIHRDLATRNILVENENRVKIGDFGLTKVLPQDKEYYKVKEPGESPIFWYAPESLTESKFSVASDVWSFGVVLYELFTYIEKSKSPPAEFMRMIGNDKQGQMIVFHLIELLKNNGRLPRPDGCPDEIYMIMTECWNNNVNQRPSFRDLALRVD
Excerpt: as §1, §2

Sequence of JAK1 (P23458 875-1153): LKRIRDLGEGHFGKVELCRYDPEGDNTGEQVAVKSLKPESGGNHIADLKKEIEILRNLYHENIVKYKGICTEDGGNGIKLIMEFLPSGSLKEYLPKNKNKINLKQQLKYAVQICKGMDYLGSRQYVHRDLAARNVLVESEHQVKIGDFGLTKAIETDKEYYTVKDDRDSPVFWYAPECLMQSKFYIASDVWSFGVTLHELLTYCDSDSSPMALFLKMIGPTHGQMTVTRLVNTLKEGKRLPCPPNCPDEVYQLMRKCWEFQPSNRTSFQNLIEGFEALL

SMILES | IC50 (JAK1) | IC50 (JAK2)
CC1(COC(=O)N2CC[C@@H](C#N)C(n3cc(C(N)=O)c(Nc4ccc(F)cc4)n3)C2)CC1 (mixture of isomers) [Example 5-72, (1-methylcyclopropyl)methyl (3S,4R and 3R,4S)-3-{4-carbamoyl-3-[(4-fluorophenyl)amino]-1H-pyrazol-1-yl}-4-cyanopiperidine-1-carboxylate] | 0.005 µM | 0.069 µM
CC(OC(=O)N1CC[C@@H](C#N)C(n2cc(C(N)=O)c(Nc3ccc(F)cc3)n2)C1)C1CC1 (mixture of isomers) [Example 5-73, 1-cyclopropylethyl (3S,4R and 3R,4S)-3-{4-carbamoyl-3-[(4-fluorophenyl)amino]-1H-pyrazol-1-yl}-4-cyanopiperidine-1-carboxylate] | 0.006 µM | 0.077 µM
N#C[C@@H]1CCN(C(=O)OCC(F)(F)CO)CC1n1cc(C(N)=O)c(Nc2ccc(F)cc2)n1 (mixture of isomers) [Example 5-74, 2,2-difluoro-3-hydroxypropyl (3S,4R and 3R,4S)-3-{4-carbamoyl-3-[(4-fluorophenyl)amino]-1H-pyrazol-1-yl}-4-cyanopiperidine-1-carboxylate] | 0.001 µM | 0.014 µM
CN(C)CC(C)(C)COC(=O)N1CC[C@@H](C#N)C(n2cc(C(N)=O)c(Nc3ccc(F)cc3)n2)C1 (mixture of isomers) [Example 5-75, 3-(dimethylamino)-2,2-dimethylpropyl (3S,4R and 3R,4S)-3-{4-carbamoyl-3-[(4-fluorophenyl)amino]-1H-pyrazol-1-yl}-4-cyanopiperidine-1-carboxylate] | 0.016 µM | 0.444 µM
CCOC(=O)N1CC[C@@H](C#N)C(n2cc(C(N)=O)c(Nc3ccc(F)cc3)n2)C1 (mixture of isomers) [Example 5-76, ethyl (3S,4R and 3R,4S)-3-{4-carbamoyl-3-[(4-fluorophenyl)ainino]-1H-pyrazol-1-yl}-4-cyanopiperidine-1-carboxylate] | 0.005 µM | 0.062 µM
CC(C)COC(=O)N1CC[C@@H](C#N)C(n2cc(C(N)=O)c(Nc3ccc(F)cc3)n2)C1 (mixture of isomers) [Example 5-77, 2-methylpropyl (3S,4R and 3R,4S)-3-{4-carbamoyl-3-[(4-fluorophenyl)amino]-1H-pyrazol-1-yl}-4-cyanopiperidine-1-carboxylate] | 0.004 µM | 0.076 µM
CC(C)(C)COC(=O)N1CC[C@@H](C#N)C(n2cc(C(N)=O)c(Nc3ccc(F)cc3)n2)C1 (mixture of isomers) [Example 5-80, 2,2-dimethylpropyl (3S,4R and 3R,4S)-3-{4-carbamoyl-3-[(4-fluorophenyl)amino]-1H-pyrazol-1-yl}-4-cyanopiperidine-1-carboxylate] | 0.006 µM | 0.145 µM
N#C[C@@H]1CCN(C(=O)OCc2ccccc2)CC1n1cc(C(N)=O)c(Nc2ccc(F)cc2)n1 (mixture of isomers) [Example 5-82, benzyl (3S,4R and 3R,4S)-3-{4-carbamoyl-3-[(4-fluorophenyl)amino]-1H-pyrazol-1-yl}-4-cyanopiperidine-1-carboxylate] | 0.002 µM | 0.053 µM
CCOC(=O)COC(=O)N1CC[C@@H](C#N)C(n2cc(C(N)=O)c(Nc3ccc(F)cc3)n2)C1 (mixture of isomers) [Example 5-84, 2-ethoxy-2-oxoethyl (3S,4R and 3R,4S)-3-{4-carbamoyl-3-[(4-fluorophenyl)amino]-1H-pyrazol-1-yl}-4-cyanopiperidine-1-carboxylate] | 0.006 µM | 0.187 µM
CN(C)CCOC(=O)N1CC[C@@H](C#N)C(n2cc(C(N)=O)c(Nc3ccc(F)cc3)n2)C1 (mixture of isomers) [Example 5-86, 2-(dimethylamino)ethyl (3S,4R and 3R,4S)-3-{4-carbamoyl-3-[(4-fluorophenyl)amino]-1H-pyrazol-1-yl}-4-cyanopiperidine-1-carboxylate] | 0.009 µM | 0.352 µM
N#CCC1(COC(=O)N2CC[C@@H](C#N)C(n3cc(C(N)=O)c(Nc4ccc(F)cc4)n3)C2)CC1 (mixture of isomers) [Example 5-88, [1-(cyanomethyl)cyclopropyl]methyl (3S,4R and 3R,4S)-3-{4-carbamoyl-3-[(4-fluorophenyl)amino]-1H-pyrazol-1-yl}-4-cyanopiperidine-1-carboxylate] | 0.0007 µM | 0.015 µM
N#C[C@@H]1CCN(C(=O)OC2COC2)CC1n1cc(C(N)=O)c(Nc2ccc(F)cc2)n1 (mixture of isomers) [Example 5-89, oxetan-3-yl (3S,4R and 3R,4S)-3-{4-carbamoyl-3-[(4-fluorophenyl)amino]-1H-pyrazol-1-yl}-4-cyanopiperidine-1-carboxylate] | 0.003 µM | 0.043 µM
N#C[C@@H]1CCN(Cc2cccnn2)CC1n1cc(C(N)=O)c(Nc2ccc(F)cc2)n1 (mixture of isomers) [Example 6-1, 1-[(3S,4R and 3R,4S)-4-Cyano-1-(pyridazin-3-ylmethyl)piperidin-3-yl]-3-[(4-fluorophenyl)amino]-1H-pyrazole-4-carboxamide] | 0.006 µM | 0.077 µM
N#C[C@@H]1CCN(Cc2cnccn2)C[C@H]1n1cc(C(N)=O)c(Nc2ccc(F)cc2)n1 (racemic) [Example 6-2, 1-[(3S,4R and 3R,4S)-4-cyano-1-(pyrazin-2-ylmethyl)piperidin-3-yl]-3-[(4-fluorophenyl)amino]-1H-pyrazole-4-carboxamide] | 0.002 µM | 0.026 µM
N#C[C@@H]1CCN(Cc2ccon2)C[C@H]1n1cc(C(N)=O)c(Nc2ccc(F)cc2)n1 (racemic) [Example 6-3, 1-[(3S,4R and 3R,4S)-4-cyano-1-(isoxazol-3-ylmethyl)piperidin-3-yl]-3-[(4-fluorophenyl)amino]-1H-pyrazole-4-carboxamide] | 0.002 µM | 0.013 µM
N#C[C@@H]1CCN(Cc2cocn2)C[C@H]1n1cc(C(N)=O)c(Nc2ccc(F)cc2)n1 (racemic) [Example 6-4, 1-[(3S,4R and 3R,4S)-4-cyano-1-(1,3-oxazol-4-ylmethyl)piperidin-3-yl]-3-[(4-fluorophenyl)amino]-1H-pyrazole-4-carboxamide] | 0.002 µM | 0.018 µM
Cn1ccc(CN2CC[C@@H](C#N)[C@H](n3cc(C(N)=O)c(Nc4ccc(F)cc4)n3)C2)n1 (racemic) [Example 6-5, 1-{(3S,4R and 3R,4S)-4-cyano-1-[(1-methyl-1H-pyrazol-3-yl)methyl]piperidin-3-yl}-3-[(4-fluorophenyl)amino]-1H-pyrazole-4-carboxamide] | 0.002 µM | 0.014 µM
N#C[C@@H]1CCN(Cc2cscn2)C[C@H]1n1cc(C(N)=O)c(Nc2ccc(F)cc2)n1 (racemic) [Example 6-6, 1-[(3S,4R and 3R,4S)-4-cyano-1-(1,3-thiazol-4-ylmethyl)piperidin-3-yl]-3-[(4-fluorophenyl)amino]-1H-pyrazole-4-carboxamide] | 0.002 µM | 0.019 µM
N#C[C@@H]1CCN(Cc2ncco2)C[C@H]1n1cc(C(N)=O)c(Nc2ccc(F)cc2)n1 (racemic) [Example 6-8, 1-[(3S,4R and 3R,4S)-4-cyano-1-(1,3-oxazol-2-ylmethyl)piperidin-3-yl]-3-[(4-fluorophenyl)amino]-1H-pyrazole-4-carboxamide] | 0.002 µM | 0.022 µM
N#C[C@@H]1CCN(CCC2CCOCC2)C[C@H]1n1cc(C(N)=O)c(Nc2ccc(F)cc2)n1 (racemic) [Example 6-10, 1-{(3S,4R and 3R,4S)-4-cyano-1-[2-(tetrahydro-2H-pyran-4-yl)ethyl]piperidin-3-yl}-3-[(4-fluorophenyl)amino]-1H-pyrazole-4-carboxamide] | 0.006 µM | 0.074 µM
